Earlier results in US12263173B2, “PLK1 inhibitor in combination with anti-angiogenics for treating metastatic cancer” (CARDIFF ONCOLOGY, INC., priority 2022, dated 2025).
Where two headings read alike, the source gives them in different places.

Key:
[1] = test system: patients with and without prior bevacizumab treatment; details: second line
[2] = test system: patients with AML; details: in combination with LDAC
[3] = test system: patients with AML who were treatment naïve yet unsuitable for induction therapy; details: administered intravenously in combination with LDAC
[4] = test system: xenograft models
[5] = test system: HT29 human colon adenocarcinoma xenografts; details: in combination with irinotecan
[6] = test system: disseminated model of AML
[7] = test system: AML cell lines
[8] = test system: patients with advanced/metastatic solid tumors; details: reversible
[9] = biological target: PLK1 (Homo sapiens, UniProt P53350)
Sequence of PLK1 (P53350 whole entry): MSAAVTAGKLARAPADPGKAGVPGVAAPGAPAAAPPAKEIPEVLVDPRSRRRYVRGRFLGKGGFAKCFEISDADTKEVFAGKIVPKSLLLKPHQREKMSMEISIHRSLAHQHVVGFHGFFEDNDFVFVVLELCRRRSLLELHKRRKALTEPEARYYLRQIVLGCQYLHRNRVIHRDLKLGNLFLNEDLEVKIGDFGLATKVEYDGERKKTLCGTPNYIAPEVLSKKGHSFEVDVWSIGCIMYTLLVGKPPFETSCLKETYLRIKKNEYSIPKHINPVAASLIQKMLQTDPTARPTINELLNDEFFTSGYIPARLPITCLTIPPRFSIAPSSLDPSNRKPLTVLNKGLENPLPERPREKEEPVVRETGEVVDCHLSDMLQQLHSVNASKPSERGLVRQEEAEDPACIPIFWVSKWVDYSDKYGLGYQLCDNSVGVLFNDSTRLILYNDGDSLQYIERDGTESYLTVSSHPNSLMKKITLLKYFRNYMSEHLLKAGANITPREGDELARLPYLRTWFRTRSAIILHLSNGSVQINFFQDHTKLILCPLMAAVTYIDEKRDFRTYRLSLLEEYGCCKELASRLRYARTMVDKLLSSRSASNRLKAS

[10] = bev naïve (without prior bevacizumab)

Q: With “bev: anti-angiogenics (angiogenesis inhibitor), Avastin” as the compound, how does the mOS [1, 10] read?
A: 13.9 months

Q: What about the mPFS [1, 10] of the same compound?
A: 6.9 months

Q: What about the mOS ([1]; prior bev) of the same compound?
A: 12.5 months

Q: And the mPFS ([1]; prior bev)?
A: 6.7 months

Q: Which results are given for `CC[C@@H]1C(=O)N(C)c2cnc(Nc3ccc(C(=O)N[C@H]4CC[C@H](N5CCN(CC6CC6)CC5)CC4)cc3OC)nc2N1C(C)C` [volasertib]?
A: benefit of the combination [2]: no benefit; OS compared with LDAC alone [3]: significant increase in OS

Q: With `CN1CCN(c2ccc(OC(F)(F)F)c(Nc3ncc4c(n3)-c3c(c(C(N)=O)nn3CCO)CC4)c2)CC1` [onvansertib, 1-(2-hydroxyethyl)-8-{[5-(4-methylpiperazin-1-yl)-2-(trifluoromethoxy)phenyl]amino}-4,5-dihydro-1H-pyrazolo[4,3-h]quinazoline-3-carboxamide] as the compound, how does the xenograft tumor growth ([4]; well tolerated doses in mice after oral administration) read?
A: inhibits xenograft tumor growth

Q: What about the tumor growth ([4]; xenograft models of AML) of the same compound?
A: inhibited

Q: And the “tumor regression compared to each agent alone” value [5]?
A: enhanced tumor regression

Q: And the survival of animals ([6]; in combination therapy with cytarabine)?
A: prolonged survival

Q: And the “effect on cytarabine antitumor activity” value ([6]; in combination with cytarabine)?
A: significantly increased

Q: What about the “inhibition of cell proliferation” value [7] of the same compound?
A: nanomolar concentrations

Q: What about the “recovery of hematologic toxicities” value [8] of the same compound?
A: ≤ 3 weeks

Q: What about the “specificity for PLK1” value ([9]; among a panel of 296 kinases, including other PLK members) of the same compound?
A: high specificity

Q: What about the “potency and specificity for the PLK1 isozyme versus volasertib” value ([9]; compared with volasertib (BI6727)) of the same compound?
A: higher degree of potency and specificity
